Assay results published in PMC10906223 (JCI Insight, 2024).
Where “and” joins values, the source holds several entries; their conditions need not be identical. Equal values may be shown once.

Assays:
[1] = test system: human donor dispersed islet cells; assay: Glucagon secretion from healthy human donor dispersed islet cells; assay type: cell-based; design: Glucagon secretion: unit not given here
Experimental: (§1) Pancreata of nondiabetic C57BL/6J mice were digested using collagenase P (Roche Diagnostics, catalog 11213873001), and islets were manually picked up using a stereomicroscope (ZEISS Stemi 305). […] Isolated mouse islets or provided human islets were dispersed as described ([28]). Briefly, 100–120 islets were washed 2 times using modified HBSS, then dispersed in 600 μL Accutase (Innovative Cell Technologies, catalog AT-104) by gently pipetting up and down for 7 minutes at 37°C. […] Following refreshing of KRBH, cells were dispensed in 8 microfuge tubes (2,000 cells/tube) and treated with WCDD301, preclustered Ephrin-A5 Fc, or preclustered Fc in the presence or absence of the competitive inhibitor of EphA4 receptor, rhyncophylline ([60]) (MilliporeSigma, catalog SML2345). In the presence or absence of these effectors, secretion assay was performed sequentially as shown in Supplemental Table 5. […] Preclustering of Ephrin-A5 Fc was done by mixing Ephrin-A5 Fc or Fc alone (BioLegend, catalog 790102) with anti-Fc antibody (Invitrogen, catalog A16086) (1:10 molar ratio) 20 minutes before treatment ([62]). […] Shedding of cleaved EphA4 was measured from the cell culture medium. Experiments were performed by dispersion of 200 islets, and EphA4 levels in media were measured by EphA4 ELISA (ABclonal, catalog RK06572).
The Integrated Islet Distribution Program provided us human donor islets with their characteristics (Supplemental Table 6). Islets were centrifuged at 500g for 3 minutes, resuspended in CMRL 1066 medium (Gibco, catalog 1150-037) containing 11 mM glucose, and rested in an incubator overnight.
For the hormone secretion assay, islets or dispersed islet cells were adapted in KRBH buffer containing 11 mM glucose for 1 hour. Then, after 2 washes in HBSS containing 11 mM glucose, islets or cells were treated in the following sequential order in the presence or absence of WCDD301: incubation in KRBH (1 mM glucose, 30 minutes) followed by medium collection, incubation in KRBH (11 mM glucose, 30 minutes) followed by medium collection.

[2] = test system: mouse dispersed islet cells; assay: Immunofluorescence: EphA4 intensity in glucagon+ mouse dispersed islet cells; assay type: cell-based;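 for EphA4 intensity: ImageJ intensity within ROI drawn around each glucagon+ cell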
Experimental: Coverslips were treated with WCDD301, preclustered Ephrin-A5 Fc, or preclustered Fc in the following sequential order: KRBH (11 mM glucose, 30 minutes), KRBH (1 mM glucose, 60 minutes), KRBH (1 mM glucose, 30 minutes), and KRBH (11 mM glucose, 60 minutes). After treatment, coverslips were washed once in PBS, fixed in 2% paraformaldehyde in PBS (30 minutes), and again washed in PBS. […] Following wash in PBS, coverslips were incubated in a mixture of Alexa Fluor 555 Phalloidin (Cell Signaling Technology, catalog 8953) and secondary antibodies (goat anti-rabbit Alexa Fluor 488, catalog A-21094, 1:1,000, Molecular Probes; and goat anti-mouse Alexa Fluor 633, catalog A21052, 1:1,000, Life Technologies) for 1 hour at RT. Both primary and secondary antibodies were diluted in blocking buffer containing 0.05% Tween 20. Coverslips were washed using PBS and counterstained by using DAPI (1:1,000) for 10 minutes. Following 2 washes in PBS, coverslips were mounted on glass slides using ProLong Glass Antifade Mountant (Invitrogen, catalog P36980). Images were captured using the Zeiss LSM880 microscope with a Plan-Apochromat 63× 1.4 NA objective lens by setting dual-band dichroic/filter for 405, 488, 561, and 633 nm laser excitation. For each slide, 25–30 fields of view were scanned, and in each field of view, 3–5 cells were imaged. […] Values of intensity were compared among groups using 1-way ANOVA, α = 0.05.

[3] = test system: dispersed mouse islet cells; assay: EphA4 shedding into culture medium (EphA4 ELISA); assay type: cell-based; conditions: Supplemental Figure 4D
Experimental: as §1

[4] = test system: α cells of NOD mice islets; assay: F-actin signal in α cells of pancreatic slices of NOD mice; assay type: in vivo, mouse; conditions: WCDD301-treated NOD mice; diabetic 47.14 ± 4.70, nondiabetic 79.14 ± 4.63
Experimental: Pancreata of NOD mice (females, n = 3 per group) from nondiabetic, diabetic placebo-treated, and diabetic WCDD301-treated cohorts were excised; fixed in 10% buffered formalin for 5 days; and treated with ethanol 70% for 2 days before paraffin embedding. The paraffin-embedded tissue blocks were longitudinally sectioned in 5 μm slices and fixed on microscope slides. Following deparaffinization (through incubation in graded xylene, graded ethanol, and PBS), permeabilization (using 0.1% Triton X-100 in PBS), and background blocking (using 5% BSA solution containing 0.1% Tween 20), samples were incubated with primary antibodies (mouse anti-glucagon, Abcam, catalog ab10988; above-mentioned rabbit anti-EphA4), secondary antibodies (goat anti-mouse IgG Alexa Fluor 488; Invitrogen, catalog A-11001; goat anti-rabbit IgG Alexa Fluor 633, Invitrogen, catalog A-21070), SPY555-Actin (Cytoskeleton, catalog SC202), and DAPI. Image acquisition and analysis were performed as for dispersed islet cells. […] ROIs were manually drawn around each islet, background signal was removed by thresholding, and intensity of glucagon signal was determined and normalized by the islet surface area. To determine sizes of α cells per islet, ROIs were manually drawn around α cells in each islet. […]

[5] = test system: diabetic NOD mice; assay: Hematoxylin-Eosin staining of pancreatic islets of NOD mice; assay type: in vivo, mouse; conditions: WCDD301-treated diabetic NOD mice
[6] = test system: nondiabetic NOD mice; assay: Blood glucose in nondiabetic NOD mice under WCDD301 dosing; assay type: in vivo, mouse; design: Blood glucose (Supplemental Figure 6B): unit: mg/dL; conditions: for Blood glucose (Supplemental Figure 6B): WCDD301-treated, individual mice M1-M5
Experimental: We applied the following therapeutic regimens in the fed state for oral dosing of pearls containing WCDD301. The therapeutic regimen for diabetic NOD mice with moderate hyperglycemia (n = 6–9; 6 females/3 males) or nondiabetic ones with blood glucose levels of < 140 mg/dL (females, n = 5) was dose 7.5 mg/kg, dosage once a day, and excipient SAIB-Agar, 50–60 mg. The therapeutic regimen for STZ-induced diabetic mice with early severe hyperglycemia (n = 3, placebo group; n = 4 treatment group, females) was dose 10 mg/kg, dosage once a day, and excipient SAIB-Agar-malic acid, 50–60 mg.

CC(=O)OCC(N)(COC(C)=O)COC(C)=O [WCDD301, 2-(acetoxymethyl)-2-aminopropane-1,3-diyl diacetate]
Effect on glucagon secretion ([1]; 1, 3 or 6 hours exposure, 1 mM and 11 mM glucose): dose-dependent and time-dependent suppression of glucagon secretion
Glucagon secretion ([1]; 1 hour exposure, WCDD301 0.75 µM, 1 mM (first group), Figure 2A): 48.0 and 44.0 and 43.0
Glucagon secretion ([1]; 1 hour exposure, WCDD301 0.75 µM, head printed 1 mM (second group c4-c7), Figure 2A): 55.8 and 56.2 and 53.0
Glucagon secretion ([1]; 1 hour exposure, WCDD301 1.5 µM, 1 mM (first group), Figure 2A): 41.5 and 42.9 and 40.0
Glucagon secretion ([1]; 1 hour exposure, WCDD301 1.5 µM, head printed 1 mM (second group c4-c7), Figure 2A): 50.8 and 55.7 and 48.0
Glucagon secretion ([1]; 1 hour exposure, WCDD301 3 µM, 1 mM (first group), Figure 2A): 40.5 and 41.8 and 38.0
Glucagon secretion ([1]; 1 hour exposure, WCDD301 3 µM, head printed 1 mM (second group c4-c7), Figure 2A): 49.7 and 48.4 and 44.0
Glucagon secretion ([1]; 3 hours exposure, WCDD301 0.75 µM, 1 mM (first group), Figure 2B): 41.6 and 44.5 and 43.0
Glucagon secretion ([1]; 3 hours exposure, WCDD301 0.75 µM, head printed 1 mM (second group c4-c7), Figure 2B): 66.0 and 60.4 and 68.0
Glucagon secretion ([1]; 3 hours exposure, WCDD301 1.5 µM, 1 mM (first group), Figure 2B): 44.9 and 42.7 and 41.0
Glucagon secretion ([1]; 3 hours exposure, WCDD301 1.5 µM, head printed 1 mM (second group c4-c7), Figure 2B): 58.5 and 55.8 and 60.0
Glucagon secretion ([1]; 3 hours exposure, WCDD301 3 µM, 1 mM (first group), Figure 2B): 42.4 and 42.3 and 41.0
Glucagon secretion ([1]; 3 hours exposure, WCDD301 3 µM, head printed 1 mM (second group c4-c7), Figure 2B): 66.8 and 54.9 and 52.0
Glucagon secretion ([1]; 6 hours exposure, WCDD301 0.75 µM, 1 mM (first group), Figure 2C): 42.9 and 40.6 and 44.0
Glucagon secretion ([1]; 6 hours exposure, WCDD301 0.75 µM, head printed 1 mM (second group c4-c7), Figure 2C): 67.1 and 76.1 and 81.0
Glucagon secretion ([1]; 6 hours exposure, WCDD301 1.5 µM, 1 mM (first group), Figure 2C): 42.5 and 46.0 and 43.0
Glucagon secretion ([1]; 6 hours exposure, WCDD301 1.5 µM, head printed 1 mM (second group c4-c7), Figure 2C): 67.6 and 68.1 and 62.0
Glucagon secretion ([1]; 6 hours exposure, WCDD301 3 µM, 1 mM (first group), Figure 2C): 39.8 and 39.3 and 37.0
Glucagon secretion ([1]; 6 hours exposure, WCDD301 3 µM, head printed 1 mM (second group c4-c7), Figure 2C): 56.5 and 55.1 and 50.0
Effect on EphA4 intensity ([2]; dispersed mouse islet cells): increased EphA4 intensity
EphA4 intensity ([2]; mouse cells, individual values, Figure 3H): 35.0 and 29.0 and 43.3 and 17.8 and 36.0 and 30.0 and 27.0 and 37.0 and 31.0 and 41.7 and 27.2 and 38.0 and 32.0 and 32.1 and 39.0 and 33.0 and 19.7
Shedding of EphA4 into the cell culture medium [3]: reduced shedding of EphA4 into the cell culture medium
F-actin signal within α cells [4]: 74.50 ± 4.80 AU
Mononuclear cell infiltration and edema (Hematoxylin-Eosin) [5]: no mononuclear infiltration or apparent edema
Development of diabetes, prophylactic administration ([6]; NOD mice): appears to prevent the development of diabetes in NOD mice
Blood glucose (Supplemental Figure 6B) ([6]; Age (week) 10): 127 and 120 and 125 and 115 and 118
Blood glucose (Supplemental Figure 6B) ([6]; Age (week) 19): 128 and 122 and 121 and 112 and 126
Effect on euglycemia ([6]; nondiabetic NOD mice, Supplemental Figure 6B): nor did it affect euglycemia
